From patent US20100087547A1, “Use of a Blood-Flow Decrease Preventing Agent in Conjunction With Insufflating Gas” (priority 2001, published 2010)

Legend:
[1] = system: blood pressure, pulmonary and renal functions; assay: Laparoscopic appendectomy, agent nebulized into the abdominal cavity (Example V); type: in vivo, human; conditions: person, 3 cc of 100 micromolar nebulized into the abdominal cavity
Text: A person undergoes laparoscopic appendectomy. Because of concerns of impaired renal function, pulmonary function and hypertension, nitroglycerin (3 cc of 100 micromolar) is nebulized into the abdominal cavity. Blood pressure increases are prevented and pulmonary and renal functions are kept stable.

blood-flow in liver = assay: Liver blood-flow by laser Doppler flow method in anesthetized pigs during and after carbon dioxide insufflation (Example I); type: in vivo; conditions: adult pigs
Description: Ten adult pigs were anesthetized at time zero using halothane anesthetic. A small cut was made in the abdomen to allow access inside the peritoneum. In the case of one group of five pigs, denoted group A, an insufflating needle was inserted, and starting at time 1 hour and 48 minutes, an insufflating gas consisting of carbon dioxide was delivered into the abdominal cavity to standard operating pressure (of 15 mm Hg) and the insufflating gas was maintained in the abdominal cavity for 1 hour whereupon the insufflating gas was removed by suction. In the case of another group of five pigs, denoted group B, an insufflating needle was inserted, and starting at time 1 hour and 35 minutes, an insufflating gas consisting of carbon dioxide and 100 ppm ethyl nitrite was delivered to the abdominal cavity to standard operating pressure and the insufflating gas was maintained in the abdominal cavity for about 1⅕ hour whereupon the insufflating gas was removed by suction. In both cases, blood-flow in liver was monitored by a laser Doppler flow method (a standard method where […] are projected at flowing blood and bounce back) whereby blood-flow is determined starting at time 5 minutes after time zero in the case of group A, and starting at about time 20 minutes after time zero in the case of group B and continuing until 2 hours after insufflating gas was removed. In FIGS. 1 and 2, the Doppler Flow Units are arbitrary units. In FIG. 3, the term “Relative Flow” means relative blood-flow in liver compared to baseline. […] FIG. 1 illustrates that carbon dioxide pneumoperitoneum produces a decrease in blood-flow to the liver, which was sustained even after the procedure was completed.

renal perfusion = assay: Laparoscopy in a person with renal artery stenosis, renal perfusion (Example IV); type: in vivo, human; conditions: 100 ppm added to insufflating gas
Text: A person with renal artery stenosis undergoes laparoscopy appendectomy and diagnostic evaluation of a renal mass.

[2] = system: abdominal pain suggestive of intestinal ischemia; assay: Laparoscopic cholecystectomy, abdominal pain suggestive of intestinal ischemia (Example III); type: in vivo, human; conditions: person, 100 ppm added to the insufflating gas one hour into the procedure
Text: A person undergoes laparoscopic cholecystectomy.

fetal PO2 = assay: Fetal PO2 during laparoscopic evaluation of a pregnant female (Example II); type: in vivo, human; conditions: 32 weeks pregnant female, 100 ppm added to carbon dioxide insufflating gas; fetal PO2 before addition 7 mmHg, electrode on the head
Description: A person, 32 weeks pregnant, undergoes laparoscopic evaluation for right lower quadrant pain. Thirty minutes into the procedure, fetal PO2, measured by an electrode placed on the head, is 7 mmHg. 100 ppm ethyl nitrite is added to the carbon dioxide insufflating gas, and the fetal PO2 increases to 25 mm Hg.

Structure (SMILES) | blood pressure increases [1] | pulmonary function [1] | renal function [1] | more blood-flow in liver than with carbon dioxide only, 2 hours post-insufflation (FIG. 3) (blood-flow in liver; 100 ppm ethyl nitrite in carbon dioxide, 2 hours after insufflating gas is removed) | more blood-flow in liver than with carbon dioxide only, during insufflation (FIG. 3) (blood-flow in liver; 100 ppm ethyl nitrite in carbon dioxide, average values while insufflating gas is present) | effect on carbon dioxide induced decline in liver perfusion (FIG. 2) (blood-flow in liver; group B, carbon dioxide with 100 ppm ethyl nitrite, 15 mm Hg, laser Doppler flow) | decrease in blood-flow (renal perfusion) (renal perfusion) | abdominal pain [2] | fetal PO2 after addition of agent (fetal PO2)
O=[N+]([O-])OCC(CO[N+](=O)[O-])O[N+](=O)[O-] [nitroglycerin] | prevented | kept stable | kept stable |  |  |  |  |  | 
CCON=O [ethyl nitrite] |  |  |  | about 40% | about 70% | protects against carbon dioxide induced decline in liver perfusion | protects against decrease in blood-flow | resolution of abdominal pain | 25 mm Hg
